{"source": "patent US7563792B2", "about": "“Biguanide and dihydrotriazine derivatives” (priority 2002, dated 2009)", "key": {"[1]": {"tested_on": "Plasmodium berghei (KBG strain)", "test": "Mouse malaria model (modified Thomson model), percent survival", "type": "in vivo, CD-1 mice", "settings": "twice a day for 3 days from day 3 post infection, orally or subcutaneously (route not stated), P. berghei infected mice", "experimental": "Seven (7) mice are typically used in each experimental group. The mice are housed 3 to 4 per cage and are maintained at a temperature of […] with a 12-hour day light cycle. The mice are fed a standard Ralston Purina® mouse chow and given water ad. lib. Their cages and water bottles were changed twice a week.\nPreparation of the test compounds oral administration involved grinding the material with a mortar and pestle before diluting in 0.5% hydroxyethylcellulose-Tween 80 (polyoxyethylene (20) sorbitan mono-oleate) for oral administration. For subcutaneous administration, the test compounds were suspended in peanut oil.\nThe mice were infected intraperitoneally with 50,000 red blood cells infected with a drug-sensitive strain of Plasmodium berghei (KBG strain) on day 0. The inoculum was obtained from a donor mouse having a parasitemia between 5% and 10%.\nThe compounds were administered according to the weight of the mice. The mice were weighed each day before the drugs were administered. Test compounds are given in a volume of 10 ml/kg of body weight. Compounds were administered either orally or subcutaneously twice a day (6 hours apart) for 3 days starting on the 3rd day post infection. Blood films were taken on day 6 post-infection and twice weekly for 30 days. The level of parasites (parasitemia) was determined from the Giemsa stained blood films.\nAntimalarial activity was quantified by a percent survival calculated for each treated group on Day 31."}, "Mycobacterium avium": {"tested_on": "Mycobacterium avium", "test": "In vitro MIC against Mycobacterium avium isolates, microtiter plate, turbidity", "type": "cell-based", "settings": "18 to 21 days"}, "[2]": {"tested_on": "Mycobacterium tuberculosis", "test": "In vitro MIC against Mycobacterium tuberculosis, microtiter plate, turbidity", "type": "cell-based", "settings": "Mycobacterium tuberculosis strain Erdmann; 37° C., 18 to 21 days", "experimental": "Antituberculosis activities were assessed in vitro using the biologically active dihydrotriazine metabolites of the imidodicarbonimidic diamides. The assay methodology is detailed as follows:\nTo tissue culture treated 96-well microtiter plates were added 20 μl of a solution of test compound. The plates were allowed to dry in an incubator at a temperature between 50° to 60° C. for 20 to 30 minutes. Then the plates were subjected to UV light for 15 minutes to kill bacteria. The plates were generally used within 2-3 days of being made. To each well was added 100 μl of culture broth and the appropriate strain of Mycobacterium tuberculosis or Mycobacterium avium. The plates were then incubated at 37° C. for between 18 days to 21 days. Growth was assessed by turbidity measurement and MICs reported in μg/ml."}}}
{"compound": "1-(3-(4-trifluoromethoxyphenoxy)propyloxy)-5-isopropyl biguanide hemisuccinate [Compound of Example 5]", "values": [{"measurement": "% SURVIVAL AT DAY 31", "setting": "[1]; dose 4 mg/kg", "value": 0, "unit": "%"}, {"measurement": "% SURVIVAL AT DAY 31", "setting": "[1]; dose 8 mg/kg", "value": 14, "unit": "%"}, {"measurement": "% SURVIVAL AT DAY 31", "setting": "[1]; dose 16 mg/kg", "value": 86, "unit": "%"}, {"measurement": "% SURVIVAL AT DAY 31", "setting": "[1]; dose 32 mg/kg", "value": 100, "unit": "%"}, {"measurement": "% SURVIVAL AT DAY 31", "setting": "[1]; dose 64 mg/kg", "value": 100, "unit": "%"}]}
{"compound": "Cl.N=C(NOCCCOc1ccc(OC(F)(F)F)cc1)NC(=N)NC1CC1", "note": "[Compound of Example 6, 1-(3-(4-trifluoromethoxyphenoxy)propyloxy)-5-cyclopropylbiguanide hydrochloride]", "values": [{"measurement": "% SURVIVAL AT DAY 31", "setting": "[1]; dose 4 mg/kg", "value": 0, "unit": "%"}, {"measurement": "% SURVIVAL AT DAY 31", "setting": "[1]; dose 8 mg/kg", "value": 14, "unit": "%"}, {"measurement": "% SURVIVAL AT DAY 31", "setting": "[1]; dose 16 mg/kg", "value": 43, "unit": "%"}, {"measurement": "% SURVIVAL AT DAY 31", "setting": "[1]; dose 32 mg/kg", "value": 71, "unit": "%"}, {"measurement": "% SURVIVAL AT DAY 31", "setting": "[1]; dose 64 mg/kg", "value": 100, "unit": "%"}]}
{"compound": "CC1(C)NC(=N)NC(=N)N1OCCCOc1ccc(OC(F)(F)F)cc1.Cl", "note": "[Metabolite of Compound of Example 5, 6,6-Dimethyl-1-[3-(4-trifluoromethoxy-phenoxy)-propoxy][1,3,5]triazinane-2,4-diylidenediamine hydrochloride]", "values": [{"measurement": "MIC", "setting": "Mycobacterium avium; Mycobacterium avium strain 101, 37° C.", "value": 3.1, "unit": "µg/mL"}, {"measurement": "MIC", "setting": "Mycobacterium avium; Mycobacterium avium strain 3404-4, 37° C.", "value": "0.6 ± 0.3", "unit": "µg/mL"}, {"measurement": "MIC", "setting": "Mycobacterium avium; Mycobacterium avium strain Farino, 37° C.", "value": "1 ± 0.85", "unit": "µg/mL"}, {"measurement": "MIC", "setting": "Mycobacterium avium; Mycobacterium avium strain LPR, 37° C.", "value": "37.5 ± 17.7", "unit": "µg/mL"}, {"measurement": "MIC", "setting": "[2]", "value": 19, "unit": "µg/mL"}]}
